# According to patent US20060063782A1, “3-Hetero arylmethoxy ! pyridines and their analogues as p38 map kinase inhibitors” (priority 2002, published 2006):
# Target: p38 MAP kinase (Homo sapiens, UniProt Q16539)
# Assay: p38 MAP Kinase Assay (33P incorporation into myelin basic protein, filter plate)
# Type: biochemical
# Conditions: Table 1; MKK6-activated p38, MBP substrate, 50 minutes
# Protocol: The activated p38 is then diluted 1:6 with assay buffer, and 20 μl mixed with 25 μl of MBP mix (300 μl 10×strength assay buffer, 300 μl of 10 mM DTT & 10 mM sodium orthovanadate, 1.7 ml H2O, 50 μCi γ^33P-ATP, 200 μl of myelin basic protein (MBP) (5 mg/ml)) and added to 96 well plates along with 5 μl of various dilutions of the test compound in DMSO (up to 10%). The reaction is allowed to proceed for 50 minutes before being stopped with an excess of ortho-phosphoric acid (30 μl at 2%).
# γ^33P-ATP which remains unincorporated into the myelin basic protein is separated from phosphorylated MBP on a Millipore MAPH filter plate. The wells of the MAPH plate are wetted with 0.5% orthophosphoric acid, and then the results of the reaction are filtered with a Millipore vacuum filtration unit through the wells. Following filtration, the residue is washed twice with 200 μl of 0.5% orthophosphoric acid. Once the filters have dried, 25 μl of Microscint 20 scintillant is added, and then counted on a Packard Topcount for 30 seconds.
# Chain of p38 MAP kinase (Q16539 whole entry): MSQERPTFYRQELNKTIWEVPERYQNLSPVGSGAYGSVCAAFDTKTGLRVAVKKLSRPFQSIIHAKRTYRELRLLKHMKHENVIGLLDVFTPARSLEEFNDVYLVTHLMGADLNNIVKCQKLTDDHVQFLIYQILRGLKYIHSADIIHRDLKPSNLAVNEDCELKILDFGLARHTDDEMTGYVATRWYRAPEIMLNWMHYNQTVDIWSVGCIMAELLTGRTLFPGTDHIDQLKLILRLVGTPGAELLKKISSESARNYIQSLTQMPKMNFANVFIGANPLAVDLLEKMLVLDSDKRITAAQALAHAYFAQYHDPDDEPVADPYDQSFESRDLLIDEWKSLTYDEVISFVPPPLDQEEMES
row,SMILES,IC50 [µM]
1,"O=C(Nc1ccc(Cl)c(COc2ccc(NCc3ccccc3)nc2)c1)c1cc(F)cc(N2CCOCC2)c1 [Compound 77, N-[3-(6-Benzylamino-pyridin-3-yloxymethyl)-4-chloro-phenyl]-3-fluoro-5-morpholin-4-yl-benzamide]",< 2
2,Nc1ncccc1OCc1ccccc1CS(=O)(=O)c1ccccc1 [Compound 25],< 1000
3,Clc1cccc(Cl)c1COc1ccc(N2CCOCC2)nc1 [Compound 54],< 1000
4,Nc1ccc(Cl)c(COc2cccnc2)c1 [Compound 41],< 1000
5,Nc1ncccc1OCc1ccc(F)cc1Cl [Compound 31],< 1000
6,"O=C(Nc1ccc(Cl)c(COc2cccnc2)c1)c1ccccc1 [Compound 52, N-[4-Chloro-3-(pyridin-3-yloxymethyl)-phenyl]-benzamide]",< 20
7,CC(=O)Nc1ccc(Cl)c(COc2cccnc2)c1 [Compound 43],< 1000
8,Nc1ncccc1OCc1cccc(C(=O)NCc2cccc3ccccc23)c1 [Compound 33],< 1000
9,Nc1ncccc1OCn1nnc2ccccc21 [Compound 37],< 1000
10,"Nc1ncccc1OCc1ccc(F)cc1F [Compound 13, 2-amino-3-(2,4-difluorobenzyloxy)pyridine]",< 1000
11,OCCNc1ccc(OCc2ccccc2)cn1 [Compound 45],< 200
12,"O=C(Nc1ccc(Cl)c(COc2cccnc2)c1)c1ccnc(N2CCOCC2)c1 [Compound 44, N-[4-Chloro-3-(pyridin-3-yloxymethyl)-phenyl]-2-morpholin-4-yl-isonicotinamide]",< 2
13,"O=C(Nc1ccc(Cl)c(COc2cccnc2)c1)c1cccc(F)c1 [Compound 50, N-[4-Chloro-3-(pyridin-3-yloxymethyl)-phenyl]-3-fluoro-benzamide]",< 200
14,"O=C(Nc1ccc(F)c(COc2cccnc2)c1)c1cccc(F)c1 [Compound 60, 3-Fluoro-N-[4-fluoro-3-(pyridin-3-yloxymethyl)-phenyl]-benzamide]",< 200
15,"O=C1c2ccccc2C(=O)N1c1ccc(Cl)c(COc2cccnc2)c1 [Compound 68, 2-[4-Chloro-3-(pyridin-3-yloxymethyl)-phenyl]-isoindole-1,3-dione]",< 1000
16,"O=C(Nc1ccc(F)c(COc2cccnc2)c1)c1cncc(N2CCOCC2)n1 [Compound 75, 6-Morpholin-4-yl-pyrazine-2-carboxylic acid [4-fluoro-3-(pyridin-3-yloxymethyl)-phenyl]-amide]",< 20
17,Nc1ccncc1OCc1cccc2ccccc12 [Compound 46],< 1000
18,"Nc1ncccc1OCc1ccc(Cl)cc1Cl [Compound 15, 2-amino-3-(2,4-dichlorobenzyloxy)pyridine]",< 1000

# Same assay, conditions: Table 2; MKK6-activated p38, MBP substrate, 50 minutes
row,SMILES,IC50 [µM]
1,CC(C)(C)n1nc(-c2ccccc2)cc1NC(=O)Nc1ccc(F)c(COc2cnccn2)c1 [Compound 129],< 20
2,"Cc1ccc(-n2nc(C(C)(C)C)cc2NC(=O)Nc2ccc(F)c(COc3cnccn3)c2)cc1 [Compound 130, 1-(5-tert-Butyl-2-p-tolyl-2H-pyrazol-3-yl)-3-[4-fluoro-3-(pyrazin-2-yloxymethyl)-phenyl]-urea]",< 2
3,"CCNC(=O)c1cnc(OCc2c(Cl)cccc2Cl)cn1 [Compound 111, 5-(2,6-Dichloro-benzyloxy)-pyrazine-2-carboxylic acid ethylamide]",< 1000
4,"O=C(Nc1ccc(F)c(COc2cnccn2)c1)Nc1n[nH]cc1-c1ccccc1 [Compound 119, 1-[4-Fluoro-3-(pyrazin-2-yloxymethyl)-phenyl]-3-(4-phenyl-1H-pyrazol-3-yl)-urea]",< 20
5,CC(C)(C)OC(=O)Nc1ccc(Cl)c(COc2cnccn2)c1 [Compound 89],< 1000
6,"CC(C)(C)c1cc(C(=O)Nc2ccc(F)c(COc3cnccn3)c2)n(Cc2ccccc2)n1 [Compound 135, 2-Benzyl-5-tert-butyl-2H-pyrazole-3-carboxylic acid [4-fluoro-3-(pyrazin-2-yloxymethyl)-phenyl]-amide]",< 20
7,"Clc1cccc(Cl)c1COc1cnc(NCc2ccccc2)cn1 [Compound 141, Benzyl-[5-(2,6-dichloro-benzyloxy)-pyrazin-2-yl]-amine]",< 20
8,"O=C(Nc1ccc(F)c(COc2cnccn2)c1)c1nnc(-c2ccccc2)o1 [Compound 126, 5-Phenyl-[1,3,4]oxadiazole-2-carboxylic acid [4-fluoro-3-(pyrazin-2-yloxymethyl)-phenyl]-amide]",< 2
9,"O=C(Nc1ccc(F)c(COc2cnccn2)c1)c1cc(N2CCOCC2)nc(N2CCOCC2)n1 [Compound 150, 2,6-Di-morpholin-4-yl-pyrimidine-4-carboxylic acid [4-fluoro-3-(pyrazin-2-yloxymethyl)-phenyl]-amide]",< 2
10,CC(C)(CO)NC(=O)Nc1cnc(OCc2c(Cl)cccc2Cl)cn1 [Compound 176],< 2
11,"CC(C)(CO)NC(=O)c1cnc(OCc2c(Cl)cccc2Cl)cn1 [Compound 113, 5-(2,6-Dichloro-benzyloxy)-pyrazine-2-carboxylic acid (2-hydroxy-1,1-dimethyl-ethyl)-amide]",< 20
12,"CC(C)(C)c1cc(NC(=O)Nc2ccc(F)c(COc3cnccn3)c2)n(-c2ccc(F)cc2F)n1 [Compound 125, 1-[5-tert-Butyl-2-(2,4-difluoro-phenyl)-2H-pyrazol-3-yl]-3-[4-fluoro-3-(pyrazin-2-yloxymethyl)-phenyl]-urea]",< 2
13,"CNc1cnc(OCc2c(Cl)cccc2Cl)cn1 [Compound 148, [5-(2,6-Dichloro-benzyloxy)-pyrazin-2-yl]-methyl-amine]",< 200
14,"Cc1nc2sccn2c1C(=O)Nc1ccc(F)c(COc2cnccn2)c1 [Compound 144, 6-Methyl-imidazo[2,1-b]thiazole-5-carboxylic acid [4-fluoro-3-(pyrazin-2-yloxymethyl)-phenyl]-amide]",< 2
15,CN1CCN(CC(=O)Nc2cnc(OCc3c(Cl)cccc3Cl)cn2)CC1 [Compound 170],< 20
16,Clc1cnc(OCc2c(Cl)cccc2Cl)cn1 [Compound 88],< 1000
17,"CC(C)(C)c1csc(NC(=O)Nc2ccc(F)c(COc3cnccn3)c2)n1 [Compound 100, 1-(4-tert-Butyl-thiazol-2-yl)-3-[4-fluoro-3-(pyrazin-2-yloxymethyl)-phenyl]-urea]",< 20
18,Nc1cnc(OCc2c(Cl)cccc2Cl)cn1 [Compound 110],< 200
19,CCN(CC)C(=O)Nc1cnc(OCc2c(Cl)cccc2Cl)cn1 [Compound 114],< 200
20,"O=C(Nc1ccc(F)c(COc2cnccn2)c1)Nc1nc(-c2ccccc2)cs1 [Compound 123, 1-[4-Fluoro-3-(pyrazin-2-yloxymethyl)-phenyl]-3-(4-phenyl-thiazol-2-yl)-urea]",< 20
21,"O=C(Nc1ccc(F)c(COc2cnccn2)c1)Nc1nnc(C2CCCO2)s1 (stereo not drawn) [Compound 140, 1-[4-Fluoro-3-(pyrazin-2-yloxymethyl)-phenyl]-3-[5-(tetrahydro-furan-2-yl)-[1,3,4]thiadiazol-2-yl]-urea]",< 2
22,Nc1nccnc1OCc1cccc2ccccc12 [Compound 82],< 1000
23,O=C(CC1CCOCC1)Nc1cnc(OCc2c(Cl)cccc2Cl)cn1 [Compound 173],< 200
24,"CSc1nnc(NC(=O)Nc2ccc(F)c(COc3cnccn3)c2)s1 [Compound 149, 1-[4-Fluoro-3-(pyrazin-2-yloxymethyl)-phenyl]-3-(5-methylsulfanyl-[1,3,4]thiadiazol-2-yl)-urea]",< 200
